Values joined by “and” are separate entries in the source; they are usually repeats but may differ in a detail not shown here. Equal entries are not always repeated. “Also recorded” adds a separate entry of the source. Where two headings read alike, the source gives them in different places.
What was measured:
[1] = target: T1, LAPTc (acidic M17 leucyl-aminopeptidase from T. cruzi) (Trypanosoma cruzi, UniProt V5BWE3); experiment: High-throughput single point screening for LAPTc inhibitors by RapidFire-MS; format: biochemical; settings: read-out: Percent Inhibition
T1 sequence (V5BWE3 entry or part of it): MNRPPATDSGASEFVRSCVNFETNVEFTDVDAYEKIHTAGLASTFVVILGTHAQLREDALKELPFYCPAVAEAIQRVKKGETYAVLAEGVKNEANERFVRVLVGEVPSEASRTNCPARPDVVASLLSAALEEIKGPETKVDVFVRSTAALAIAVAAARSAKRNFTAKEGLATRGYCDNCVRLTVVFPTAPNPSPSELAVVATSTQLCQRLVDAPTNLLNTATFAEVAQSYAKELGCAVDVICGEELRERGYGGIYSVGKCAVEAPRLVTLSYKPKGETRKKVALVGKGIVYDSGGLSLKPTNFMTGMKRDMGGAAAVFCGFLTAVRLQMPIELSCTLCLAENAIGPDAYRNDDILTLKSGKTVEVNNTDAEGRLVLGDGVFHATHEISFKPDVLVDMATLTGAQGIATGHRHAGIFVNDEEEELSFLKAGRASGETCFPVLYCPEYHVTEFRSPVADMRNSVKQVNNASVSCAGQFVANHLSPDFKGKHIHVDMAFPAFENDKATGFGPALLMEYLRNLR
Description: (§1) This assay was previously described. The assay was performed in 384-well clear F-bottom polypropylene plates with a final reaction volume of 15 μL. The reaction mixture contained 7.5 μL LAPTc in 50 mM Tris-HCl, pH 7.5, 0.005% NP-40 and 7.5 μL LSTVIVR peptide substrate (Cambridge Research Biochemicals, Billingham, UK) in the same buffer was added to start the reaction. The reaction was performed at room temperature for 40 min and then stopped with 85 μL 1% formic acid containing 0.15 mg/mL STVIVR* internal standard (Cambridge Research Biochemicals, Billingham, UK).
Single point screening of a library of 3329 compounds was performed in 384-well clear plates (Greiner 781101) at room temperature. Test compounds (45 nL in DMSO) were transferred to assay plates by an ECHO 550 acoustic dispenser (Labcyte). LAPTc was tested at 3 nM with 150 μM (approximately the value of the apparent Michaelis-Menten constant -appKM- [16]) LSTVIVR peptide substrate in a 40 min reaction. Before addition of substrate, LAPTc was preincubated with 45 nL compounds or DMSO for 15 min. Compounds, dissolved in DMSO, were tested at 30 μM. Controls without compound (the same volume of DMSO, 0% inhibitory effect) and without enzyme and compound (100% inhibitory effect) were prepared. The experiment was performed without replicates. The remaining experimental conditions were maintained as previously described. Data were processed and analysed through ActivityBase XE (IDBS). The selection criterion for hits in this single point screen was percent inhibition larger than the mean plus three standard deviations. All primary screening data are available in ChEMBL (see Data Availability statement).

[2] = target: T1, LAPTc (acidic M17 leucyl-aminopeptidase from T. cruzi); experiment: Dose-response studies for LAPTc inhibition by RapidFire-MS; format: biochemical
Description: as §1
To generate half-maximum inhibitory concentration (IC50) data for LAPTc, 10-point dose-response curves with 100 μM as highest concentration and 1:2 dilution in DMSO (0.195–100 μM range) were prepared in 384 well plates. All other experimental conditions were as described above. All IC50 curve fitting was performed by four-parameter logistic dose-response curve fit using ActivityBase XE (IDBS). At least three replicates were generated for each hit compound.

LAPTc = LAPTc (Trypanosoma cruzi, UniProt V5BWE3); experiment: Mode of inhibition studies by RapidFire-MS; format: biochemical
LAPTc, sequence (V5BWE3 entry or part of it): as above
Description: Five concentrations of the LSTVIVR peptide substrate (100–1600 μM range) were tested in the presence of 3 nM LAPTc for 40 min. For each substrate concentration, compound 4 was tested at 0, 0.1 and 0.2 μM. For each substrate and compound 4 concentration, a negative control without enzyme was used. Before addition of substrate, LAPTc was preincubated with compound 4 for 15 min. Other experimental conditions were as previously described. Ki was calculated by fitting the Morrison equation to the experimental data. Binding energy (ΔGb) was calculated from Ki according to the equation ΔG = -RTlnKi.

human LAP3 = target: T2, human LAP3 (Homo sapiens, UniProt P28838); experiment: Dose-response studies for human LAP3 inhibition by RapidFire-MS; format: biochemical
T2 construct: purchased Assay Genie, Ireland
T2 sequence (P28838 whole entry): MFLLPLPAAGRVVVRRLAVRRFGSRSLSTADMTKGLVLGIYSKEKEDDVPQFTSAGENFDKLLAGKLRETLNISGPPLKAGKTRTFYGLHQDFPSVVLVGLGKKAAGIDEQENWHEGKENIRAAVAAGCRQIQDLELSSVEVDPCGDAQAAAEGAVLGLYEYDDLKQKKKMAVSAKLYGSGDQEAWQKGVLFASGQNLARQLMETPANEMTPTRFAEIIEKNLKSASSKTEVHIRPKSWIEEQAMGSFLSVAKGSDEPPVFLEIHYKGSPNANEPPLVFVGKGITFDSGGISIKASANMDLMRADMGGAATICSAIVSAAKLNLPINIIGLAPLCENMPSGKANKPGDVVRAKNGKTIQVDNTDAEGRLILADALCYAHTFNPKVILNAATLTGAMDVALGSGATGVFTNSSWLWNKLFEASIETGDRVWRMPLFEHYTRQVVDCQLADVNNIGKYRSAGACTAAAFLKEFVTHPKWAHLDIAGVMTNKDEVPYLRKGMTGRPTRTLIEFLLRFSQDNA
Description: Human LAP3 enzyme (Assay Genie, Ireland) was tested at 150 nM with 600 μM (~1 appKM) LSTVIVR peptide substrate and 1 mM ZnCl2 in a 180 min reaction. All other experimental conditions were as described above for dose-response assays with LAPTc.

[3] = test system: intracellular T. cruzi amastigotes; experiment: T. cruzi intracellular assay (high-content imaging, infected Vero cells); format: cell-based, Trypanosoma cruzi; set-up: Max Effect (T. cruzi): unit not given here
Description: T. cruzi parasite, TcI strain Silvio X10/7 subclone A1 [34] was maintained in culture as previously described. Parasites were maintained as amastigotes by passaging on a weekly basis in Vero cells. Culture maintenance infections were carried out at an MOI (multiplicity of infection) of 1.5.
(§2) This assay was performed as described with the only modification that treatment was 96 h instead of 72 h. Briefly, Vero cells were infected overnight with tissue culture derived T. cruzi trypomastigotes in T225 tissue culture flasks (MOI 5). Any remaining free trypomastigotes were washed away with serum free MEM and the infected Vero cells were harvested by trypsinisation. Compounds (250 nL in DMSO) were dispensed using LabCyte ECHO (Beckman Coulter Life Sciences, USA) into each well of Corning black flat bottomed 384-well plates (Corning, USA). […] The infected Vero cells were then plated into the plates containing the compounds, at 4,000 cells per well in MEM media with 1% FCS. After 96 h incubation at 37°C in presence of 5% CO2, the plates were fixed with 4% formaldehyde for 20 min at room temperature and stained with 5 μg/mL Hoechst 33342. The plates were imaged on a Perkin Elmer Operetta high-content imaging system using a 20× objective. Images were analyzed using the Columbus system (Perkin Elmer). The algorithm first identified the Vero nuclei followed by demarcation of the cytoplasm and identification of intracellular amastigotes. This algorithm reported percent infected Vero cell and total number of Vero cells. All potency determinations were carried out in at least three independent replicates and are reported as pEC50 +/- standard deviation. pEC50 = -log(EC50[M]).

[4] = Cytotoxicity against infected Vero host cells in T. cruzi intracellular assay; format: cell-based, African green monkey; set-up: Max Effect (Vero): unit not given here; settings: African green monkey, Vero cells infected with T. cruzi; infected Vero host cells, 96 h; read-out: pCC50 (Vero) +/- StDev (converted)
Description: (§3) Briefly, these cells were maintained at 37°C and 5% CO2 in MEM supplemented with 10% FCS, sub-culturing every 2–3 days at a ratio of 1:5 after 5 min treatment with Trypsin-EDTA (Gibco).
as §2, with “After 96 h incubation at 37°C in presence of 5% CO2, the plates were fixed with 4% formaldehyde for 20 min at room temperature and stained with 5 μg/mL Hoechst 33342.” left out

Vero cells = experiment: as above; format: cell-based, African green monkey; set-up: Max Effect (Vero): unit not given here
Description: as §3
as §2, with “After 96 h incubation at 37°C in presence of 5% CO2, the plates were fixed with 4% formaldehyde for 20 min at room temperature and stained with 5 μg/mL Hoechst 33342.” left out

[5] = Cytotoxicity assay on human HepG2 cells (resazurin); format: cell-based; settings: human, HepG2 cells, 72 h, two independent experiments; read-out: pCC50 (HepG2) (converted)
HepG2 cells = experiment: as above; format: cell-based
[6] = Replicate data generation, individual replicates

Structure (SMILES): COc1ccc2oc(C(=O)Nc3nc(-c4ccccn4)cs3)c(C)c2c1 [Compound 4]
- inhibition at 30 µM [1]: 59%
- IC50 ([2]; IC50 (LAPTc)): 440 nM
- Hill Slope ([2]; Initial hit confirmation, single replicate): 2.5
- Hill Slope [2, 6]: 2.8 and 2.1 and 2.3
- Maximum Effect [2, 6]: 87% and 81%
- IC50 ([2]; pIC50 +/- StDev (LAPTc), average of four independent replicates): 437 nM
- IC50 ([2]; pIC50, Initial hit confirmation, single replicate): 200 nM
- IC50 ([2]; pIC50, Replicate data generation, individual replicates): 794 nM and 501 nM
- Emax ([2]; read-out: Maximum Effect, Initial hit confirmation, single replicate): 96%
- Emax ([2]; read-out: Maximum Effect, Replicate data generation, individual replicates): 83%
- Hit Confirmation ([2]; whether primary screen hit confirmed in potency experiment): confirmed
- Ki (LAPTc): 270 nM
- ligand efficiency (LE) (LAPTc; LE = -RT ln Ki / number of non-hydrogen atoms): 0.33
- experimental binding energy (ΔGb) (LAPTc; calculated from Ki, ΔG = -RTlnKi): -8.95 kcal/mol
- mode of inhibition (LAPTc; with respect to substrate peptide LSTVIVR, Lineweaver-Burk): competitive inhibitor
- IC50 (human LAP3): > 100000 nM
- EC50 ([3]; Trypanosoma cruzi, Vero, 96 h, four independent experiments, read-out: pEC50 (T. cruzi) +/- StDev (converted)): 676 nM
- EC50 ([3]; Trypanosoma cruzi, Vero, 96 h, read-out: EC50 (T. cruzi amastigotes)): 700 nM
- Emax ([3]; Trypanosoma cruzi, Vero, individual replicates, read-out: Max Effect (T. cruzi)): 95%
- EC50 ([3]; Trypanosoma cruzi, Vero, individual replicates, read-out: pEC50 (T. cruzi) (converted)): 631 nM
- Max Effect (T. cruzi) ([3]; individual replicates): 92 and 96 and 100
- pEC50 (T. cruzi) ([3]; individual replicates): 6.1
- CC50 at 96 h [4]: 2240 nM
- Selectivity index (fold window Tc/Vero) (Vero cells): 3.3 fold
- Max Effect (Vero) (Vero cells; individual replicates): 85 and 83 and 79
- pEC50 (Vero) (Vero cells; individual replicates): 5.4 and 6.0 and 5.5 and 5.8
- CC50 at 72 h [5]: > 100000 nM
- Selectivity window based on the HepG2 data (HepG2 cells; T. cruzi vs HepG2): > 166 fold
- Max Effect (HepG2) (HepG2 cells; individual replicates): 38 and 49
- pEC50 (HepG2) (HepG2 cells; individual replicates): < 4.0
- toxicity against HepG2 cells (in words) (HepG2 cells; uninfected HepG2 cells): no toxicity was observed; also recorded: some toxicity was seen for compound 4 at 33 μM and 100 μM

— PMC10901353, “Identification of a potent and selective LAPTc inhibitor by RapidFire-Mass Spectrometry, with antichagasic activity” (PLOS Neglected Tropical Diseases, 2024)
